Measured values: ChEMBL document CHEMBL5385889, “Design, synthesis and biological evaluations of quinolone amides against African trypanosomiasis with improved solubility” (Eur J Med Chem, 2023)
In brackets after ≈: the same amount, converted by molar mass.

How the values were obtained:
[1] = Octanol/water partition coefficient, log P of the compound by LC-MS analysis; format: physicochemical
Trypanosoma brucei = assay: Antitrypanosomal activity against wild type Trypanosoma brucei M1.2 Lister 427 trypomastigotes form assessed as parasite growth inhibition incubated for 48 hrs; format: functional, organism-based; conditions: M1.2 Lister 427, 48 h
J774.1 = assay: Cytotoxicity against mouse J774.1 cells assessed as reduction in cell viability incubated for 24 hrs by alamar blue staining based analysis; format: functional
[2] = Selectivity index, ratio of CC50 for cytotoxicity against mouse J774.1 cells assessed as reduction in cell viability to IC50 for antitrypanosomal activity against wild type Trypanosoma brucei M1.2 Lister 427 trypomastigotes form assessed as parasite growth inhibition; format: toxicity, cell-based; conditions: read-out: Ratio CC50/IC50
[3] = Thermodynamic aqueous solubility of compound in PBS buffer at pH 7.4 at 37 degreeC measured after 24 hrs by HPLC analysis; format: physicochemical; conditions: read-out: Therm_solubility

| SMILES | logP [1] | IC50 (Trypanosoma brucei) [µM] | CC50 (J774.1) [µM] | selectivity ratio [2] | logP ([1]; read-out: logP) | solubility thermodynamic at 24 h [3] [µg/mL] |
| --- | --- | --- | --- | --- | --- | --- |
| CCCCn1cc(C(=O)NCc2ccccc2)c(=O)c2cc(F)c(N3CCOCC3)cc21 | 4.1 | 0.047 | 57 | 1210 |  |  |
| CCCCn1cc(C(=O)NCc2ccccc2)c(=O)c2ccc(N3CCOCC3)cc21 |  | 0.23 | > 100 | > 435 |  |  |
| CCCCn1cc(C(=O)NCc2ccccc2)c(=O)c2c(F)cc(N3CCOCC3)cc21 |  | 0.05 | > 100 | > 2000 | 3.38 |  |
| CCCCn1cc(C(=O)NCc2ccc(CN)cc2)c(=O)c2cc(F)c(N3CCOCC3)cc21 |  | 0.3 | 49.2 | 164 | 3.8 | > 1000 |
| CCCCn1cc(C(=O)NC2(c3ccccc3)CCOCC2)c(=O)c2ccc(N3CCOCC3)cc21 |  | > 20 | > 50 |  | 3.6 | 1.03 (≈ 2.1 µM) |
| CCCCn1cc(C(=O)NCc2ccccc2)c(=O)c2ccc(NCCOCCOCCOC)cc21 |  | 1.15 | > 50 | > 43 | 3.38 | 41 (≈ 82.7 µM) |
| CCCCn1cc(C(=O)NCc2ccccc2)c(=O)c2cc(F)c(N3CCOCC3)c(Cl)c21 |  | 0.18 | > 50 | > 278 | 5.01 | < 0.1 |
| CCCCn1cc(C(=O)NC2(c3ccccc3)CCCCC2)c(=O)c2cc(F)c(N3CCOCC3)cc21 |  | 4.72 | 31 | 7 | 5.64 | < 0.1 |
| CCCCn1cc(C(=O)NC2(c3ccccc3)CC2)c(=O)c2cc(F)c(N3CCOCC3)c(F)c21 |  | 0.06 | > 20 | > 333 | 4.57 | 0.23 (≈ 0.478 µM) |
| CCCCn1cc(C(=O)NC2(c3ccccc3)CCCCC2)c(=O)c2ccc(N3CCOCC3)cc21 |  | 4.18 | 37 | 9 | 4.94 | < 0.1 |
| CCCCn1cc(C(=O)NC2(c3ccccc3)CCS(=O)(=O)CC2)c(=O)c2ccc(N3CCOCC3)cc21 |  | > 20 | > 50 |  | 2.83 | 3.35 (≈ 6.23 µM) |
| CCCCn1cc(C(=O)NCc2ccccc2)c(=O)c2cc(OCC)c(N3CCOCC3)c(OCC)c21 |  | 1.93 | 33.2 | 17 | 5.51 | < 0.1 |
| CCCCn1cc(C(=O)NCc2cccc(C#N)c2)c(=O)c2c(F)cc(N3CCOCC3)cc21 |  | 0.022 | > 50 | > 2270 | 2.98 | 0.24 (≈ 0.519 µM) |
| CCCCn1cc(C(=O)NCc2ccc(CN)cc2)c(=O)c2c(F)cc(N3CCOCC3)cc21 |  | 0.25 | > 50 | > 200 | 2.72 | > 1000 |
| CCCCn1cc(C(=O)NC2(c3ccccc3)CCCCC2)c(=O)c2c(F)cc(N3CCOCC3)cc21 |  | 4.22 | > 50 | > 12 | 4.97 | < 0.1 |
| CCCCn1cc(C(=O)NCc2ccc(CN)cc2)c(=O)c2ccc(N3CCOCC3)cc21 |  | 1.55 | > 50 | > 32 | 3.24 | > 1000 |
| CCCCn1cc(C(=O)NCc2ccccc2)c(=O)c2ccc(N3CCC(OCCOCCOCCOC)CC3)cc21 |  | 1.01 | 48.5 | 48 | 4.05 | 86.9 (≈ 150 µM) |

| SMILES | logP [1] | IC50 (Trypanosoma brucei) [µM] | CC50 (J774.1) [µM] | selectivity ratio [2] | logP ([1]; read-out: logP) | solubility thermodynamic at 24 h [3] [µg/mL] |
| --- | --- | --- | --- | --- | --- | --- |
| O=C(NCc1ccccc1)c1cn(CC2CCC2)c2cc(N3CCOCC3)ccc2c1=O |  | 0.8 | 29.9 | 37 | 3.68 | 1.66 (≈ 3.85 µM) |
| CCCCn1cc(C(=O)NC2(c3ccccc3)CCCC2)c(=O)c2cc(F)c(N3CCOCC3)cc21 |  | 1.83 | 47.4 | 26 | 5.24 | < 0.1 |
| CCCCn1cc(C(=O)NC2(c3ccccc3)CC2)c(=O)c2ccc(N3CCOCC3)cc21 |  | 0.72 | > 50 | > 69 | 3.76 | < 0.1 |
| CCCCn1cc(C(=O)NCc2ccc(C#N)cc2)c(=O)c2c(F)cc(N3CCOCC3)cc21 |  | 0.1 | > 50 | > 500 | 2.9 | 0.88 (≈ 1.9 µM) |
| CCCCn1cc(C(=O)NCc2ccccc2)c(=O)c2cc(F)c(N3CCOCC3)c(Br)c21 |  | 0.47 | > 50 | > 106 | 5.05 | < 0.1 |
| CCCCn1cc(C(=O)NC23CC(C2)C3)c(=O)c2ccc(N3CCOCC3)cc21 |  | 3.72 | > 50 | > 13 | 3.74 | 3.02 (≈ 7.64 µM) |
| CCCCn1cc(C(=O)NC2(c3ccccc3)CC2)c(=O)c2c(F)cc(N3CCOCC3)cc21 |  | 0.18 | > 50 | > 278 | 3.54 | < 0.1 |
| CCCCn1cc(C(=O)NCc2cccc(CN)c2)c(=O)c2ccc(N3CCOCC3)cc21 |  | 1.08 | > 50 | > 46 | 3.31 | > 1000 |
| O=C(NCc1ccccc1)c1cn(CC2CC2)c2cc(N3CCOCC3)ccc2c1=O |  | 0.55 | > 50 | > 91 | 3.24 | 5.81 (≈ 13.9 µM) |
| CCCCn1cc(C(=O)NC2(c3ccccc3)CC2)c(=O)c2cc(F)c(N3CCOCC3)cc21 |  | 0.15 | > 50 | > 333 | 4.46 | < 0.1 |
| O=C(NCc1ccccc1)c1cn(C23CC(C2)C3)c2cc(N3CCOCC3)ccc2c1=O |  | 0.13 | 48.4 | 373 | 4.57 | 4.06 (≈ 9.45 µM) |
| O=C(NCc1ccccc1)c1cn(CC2CCCCC2)c2cc(N3CCOCC3)ccc2c1=O |  | 0.86 | > 50 | > 58 | 4.59 | < 0.1 |
| CCCCn1cc(C(=O)NCc2ccccc2)c(=O)c2ccc(OCCOCCOCCOC)cc21 |  | 1.12 | > 50 | > 45 | 3.57 | 93 (≈ 187 µM) |
| CCCCn1cc(C(=O)NCc2ccccc2)c(=O)c2ccc(N3CCCN(C)CC3)cc21 |  | 2.97 | 14.2 | 5 | 4.51 | 20.9 (≈ 46.8 µM) |
| CCCCn1cc(C(=O)NCc2cccc(CN)c2)c(=O)c2cc(F)c(N3CCOCC3)cc21 |  | 0.52 | 41.8 | 80 | 3.83 | > 1000 |
| CCCCN1CC(C)(C(=O)NCc2ccccc2)C(=O)c2ccc(N3CCOCC3)cc21 (centres undefined) |  | 3.74 | > 50 | > 13 | 3.04 | 10.4 (≈ 23.9 µM) |
| CCCCn1cc(C(=O)NC2(c3ccccc3)CCCC2)c(=O)c2ccc(N3CCOCC3)cc21 |  | 4.4 | 34.1 | 8 | 4.57 | < 0.1 |
